What all share (assay): Kinase panel profiling at 1 µmol/L (MSA or IMAP), percentage inhibition
Common to all, as to type: biochemical

For experiment [1], the target named is panel of 255 wild-type kinases (Homo sapiens, UniProt Q13555). Conditions: CaMK2γ kinase assay; 1 µmol/L single concentration; read-out: %-inhibition CaMK2γ.
Experiment [2] deals with panel of 255 wild-type kinases (Homo sapiens, UniProt P07948). Conditions: kinase LYNa; 1 µmol/L single concentration; read-out: %-inhibition at 1 µmol/L, LYNa.
In experiment [3] the target is panel of 255 wild-type kinases (Homo sapiens, UniProt P24941). The following applies: 1 µmol/L single concentration.
The target in experiment [4] is panel of 255 wild-type kinases (Homo sapiens, UniProt Q15303). Conditions: kinase HER4; 1 µmol/L single concentration; read-out: %-inhibition at 1 µmol/L, HER4.
Experiment [5] deals with panel of 255 wild-type kinases (Homo sapiens, UniProt Q9HC98). The following applies: NEK6; 1 µmol/L single concentration; read-out: %-inhibition, NEK6.
Experiment [6] deals with panel of 255 wild-type kinases (Homo sapiens, UniProt P06213). Conditions: kinase INSR; 1 µmol/L single concentration; read-out: %-inhibition at 1 µmol/L, INSR.
The target of experiment [7] is T1, panel of 255 wild-type kinases (Homo sapiens, UniProt Q12851).
T1 sequence (Q12851 1-820): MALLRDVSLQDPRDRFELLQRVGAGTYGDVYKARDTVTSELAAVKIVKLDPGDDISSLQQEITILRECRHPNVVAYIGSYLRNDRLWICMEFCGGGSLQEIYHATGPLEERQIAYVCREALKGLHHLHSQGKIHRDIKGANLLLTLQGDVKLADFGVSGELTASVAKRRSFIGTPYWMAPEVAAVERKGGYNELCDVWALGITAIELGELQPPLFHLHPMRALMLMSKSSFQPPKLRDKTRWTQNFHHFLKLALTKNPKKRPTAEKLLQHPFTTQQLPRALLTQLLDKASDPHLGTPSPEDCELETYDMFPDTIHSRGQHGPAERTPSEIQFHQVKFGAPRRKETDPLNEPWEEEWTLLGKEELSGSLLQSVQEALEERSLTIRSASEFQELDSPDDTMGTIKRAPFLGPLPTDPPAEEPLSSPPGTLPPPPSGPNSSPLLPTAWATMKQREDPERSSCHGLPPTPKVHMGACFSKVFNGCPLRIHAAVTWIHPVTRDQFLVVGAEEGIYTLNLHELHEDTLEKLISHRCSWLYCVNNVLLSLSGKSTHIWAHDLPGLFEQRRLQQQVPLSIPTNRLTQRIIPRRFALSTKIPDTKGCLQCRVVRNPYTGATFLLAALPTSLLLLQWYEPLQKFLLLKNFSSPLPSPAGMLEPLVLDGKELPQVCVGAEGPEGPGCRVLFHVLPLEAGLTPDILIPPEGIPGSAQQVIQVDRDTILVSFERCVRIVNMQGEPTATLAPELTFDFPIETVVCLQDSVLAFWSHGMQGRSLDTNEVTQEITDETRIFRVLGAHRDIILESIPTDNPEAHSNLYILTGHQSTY
Conditions: kinase MAP4K2; 1 µmol/L single concentration; read-out: %-inhibition at 1 µmol/L, MAP4K2.

For experiment [8], the target named is panel of 255 wild-type kinases (Homo sapiens, UniProt O14578). The following applies: kinase CRIK; 1 µmol/L single concentration; read-out: %-inhibition at 1 µmol/L, CRIK.
In experiment [9] the target is panel of 255 wild-type kinases (Homo sapiens, UniProt P54646). The following applies: AMPKα2/β1/γ1 kinase assay; 1 µmol/L single concentration; read-out: %-inhibition AMPKα2/β1/γ1.
Experiment [10] addresses panel of 255 wild-type kinases (Homo sapiens, UniProt Q9HBH9). The following applies: MNK2; 1 µmol/L single concentration; read-out: %-inhibition, MNK2.
For experiment [11], the target named is panel of 255 wild-type kinases (Homo sapiens, UniProt Q14012). The following applies: CaMK1α kinase assay; 1 µmol/L single concentration; read-out: %-inhibition CaMK1α.
Experiment [12] concerns the target panel of 255 wild-type kinases (Homo sapiens, UniProt P48730). Conditions: kinase CK1δ; 1 µmol/L single concentration; read-out: %-inhibition at 1 µmol/L, CK1δ.
The target in experiment [13] is panel of 255 wild-type kinases (Homo sapiens, UniProt P31751). The following applies: AKT2 kinase assay; 1 µmol/L single concentration; read-out: %-inhibition AKT2.
Experiment [14] deals with panel of 255 wild-type kinases (Homo sapiens, UniProt Q96RG2). The following applies: PASK; 1 µmol/L single concentration; read-out: %-inhibition, PASK.
Experiment [15] deals with panel of 255 wild-type kinases (Homo sapiens, UniProt P49759). Conditions: kinase CLK1; 1 µmol/L single concentration; read-out: %-inhibition at 1 µmol/L, CLK1.
The target of experiment [16] is panel of 255 wild-type kinases (Homo sapiens, UniProt P45983). The following applies: kinase JNK1; 1 µmol/L single concentration; read-out: %-inhibition at 1 µmol/L, JNK1.
The target in experiment [17] is panel of 255 wild-type kinases (Homo sapiens, UniProt Q16654). The following applies: kinase PDHK4; 1 µmol/L single concentration; read-out: %-inhibition at 1 µmol/L, PDHK4.
Where [18] appears, read: CDK2/CycA2 kinase assay, read-out: %-inhibition CDK2/CycA2.
[19] abbreviates: CDK2/CycE1 kinase assay, read-out: %-inhibition CDK2/CycE1.

Drawing on PMC9516332 (Frontiers in Oncology, 2022), this text covers inhibition for seven molecules.

Read-outs that look alike come from different tables or passages of the source.

With `CN1CCN(c2ccc(C(=O)Nc3n[nH]c4ccc(Cc5cc(F)cc(F)c5)cc34)c(NC3CCOCC3)c2)CC1` [entrectinib], the inhibition at 1 µM is 17% in experiment [1]; 74% in experiment [2]; 20% in [3] (setting [18]); 11% in experiment [3] (setting [19]); 32% in [4]; -1.86% in experiment [5]. The inhibition at 1 µM in experiment [6] is 94%; in experiment [7], 85%; in experiment [8] it was -9%; in [9], 79%; in [10], 0.904%; in experiment [11], -5.68%. In addition, the inhibition at 1 µM in experiment [12] is -5%; in experiment [13], -3.69%; in experiment [14], 1.19%; in experiment [15], 60%; in [16] it was -0.262%; in experiment [17], 3.42%.

Consider `CO[C@]1(C(=O)N[C@@H](C)c2ccc(-n3cc(F)cn3)nc2)CC[C@H](c2nc(C)cc(Nc3cc(C)[nH]n3)n2)CC1` [pralsetinib], for which the inhibition at 1 µM in experiment [1] was -3%; in experiment [2] it was 92%; in experiment [3] (setting [18]), 66%; in [3] (setting [19]) it was 58%; in experiment [4], 53%; in experiment [5], -0.0459%. The inhibition at 1 µM in experiment [6] is 10%; in [7], 3.5%; in experiment [8] it was -0.417%; in experiment [9], 83%; in [10], 2%; in experiment [11], -4.72%. In addition, the inhibition at 1 µM in experiment [12] is 0.94%; in experiment [13] it was 0.305%; in experiment [14], -2.38%; in [15], 32%; in [16], -5%; in experiment [17] it was 12%.

In the case of `C[C@H]1Oc2cc(cnc2N)-c2c(nn(C)c2C#N)CN(C)C(=O)c2ccc(F)cc21` [lorlatinib], the inhibition at 1 µM in experiment [1] is 10%; in experiment [2] it was 21%; in [3] (setting [18]) it was 1.87%; in experiment [3] (setting [19]) it was -6.33%; in experiment [4] it was 11%; in experiment [5], -0.382%. Also, the inhibition at 1 µM in experiment [6] is 64%; in experiment [7] it was 20%; in [8] it was -1.22%; in experiment [9], 2.22%; in experiment [10] it was 13%; in experiment [11], 1.49%. Also, the inhibition at 1 µM is -6.46% in experiment [12]; -2.31% in [13]; 0.792% in experiment [14]; -2.47% in experiment [15]; -0.746% in experiment [16]; -0.664% in [17].

As for `CCn1c(=O)c(-c2cc(NC(=O)Nc3ccccc3)c(F)cc2Br)cc2cnc(NC)cc21` [ripretinib], the inhibition at 1 µM in experiment [1] is 0.397%; in experiment [2], 85%; in [3] (setting [18]), -11%; in experiment [3] (setting [19]) it was -12%; in experiment [4] it was 36%; in experiment [5], -4%. Moreover, the inhibition at 1 µM in [6] is 1.55%; in experiment [7], 44%; in experiment [8], 20%; in experiment [9] it was -22%; in [10] it was 5%; in experiment [11], -8%. The inhibition at 1 µM is -8% in experiment [12]; -5% in [13]; -1% in experiment [14]; 1% in experiment [15]; 4% in experiment [16]; 4% in experiment [17].

`Cc1nc(NC(=O)N2CCC[C@H]2C(N)=O)sc1-c1ccnc(C(C)(C)C(F)(F)F)c1` [alpelisib]: the inhibition at 1 µM in [1] was 0.455%; in experiment [2], 1.8%; in experiment [3] (setting [18]), -2.39%; in experiment [3] (setting [19]), -10%; in experiment [4], 2%; in experiment [5], 0.343%. For the same molecule, the inhibition at 1 µM in experiment [6] was -2.57%; in experiment [7], 5.56%; in experiment [8] it was -5.56%; in experiment [9] it was 2.22%; in experiment [10], 8%; in experiment [11], -10%. Also, the inhibition at 1 µM in [12] is 9%; in experiment [13], -0.795%; in experiment [14], -2%; in experiment [15], 59%; in [16], -5%; in experiment [17] it was 0.0757%.

With `FC(F)(F)c1ccc(CNc2ccc(Cc3c[nH]c4ncc(Cl)cc34)cn2)cn1` [pexidartinib], the inhibition at 1 µM in [1] is 0.769%; in experiment [2], 24%; in experiment [3] (setting [18]), 12%; in experiment [3] (setting [19]), -4%; in experiment [4], 13%; in [5], -0.796%. In addition, the inhibition at 1 µM is 17% in [6]; 31% in experiment [7]; -1.09% in experiment [8]; -7% in experiment [9]; 48% in [10]; -13% in [11]. Moreover, the inhibition at 1 µM in experiment [12] is -3.46%; in [13] it was -6%; in experiment [14], 6%; in [15], 13%; in [16], -1.87%; in experiment [17], 4.63%.

For `CCc1nc(C(N)=O)c(Nc2ccc(N3CCC(N4CCN(C)CC4)CC3)c(OC)c2)nc1NC1CCOCC1` [gilteritinib], the inhibition at 1 µM in [1] was 62%; in experiment [2], 88%; in experiment [3] (setting [18]) it was 27%; in experiment [3] (setting [19]) it was 17%; in experiment [4] it was 83%; in experiment [5] it was -2%. For the same molecule, the inhibition at 1 µM in experiment [6] came out at 100%; in experiment [7] it was 99%; in [8], 75%; in experiment [9] it was 21%; in experiment [10] it was 89%; in experiment [11] it was 41%. The inhibition at 1 µM in [12] is 25%; in experiment [13], -4.73%; in experiment [14], 2.54%; in experiment [15] it was 96%; in experiment [16], 29%; in experiment [17] it was 3%.
